From patent US11786592B2, “Compositions of cardiolipin adjuvants and methods of use thereof” (The University of Hong Kong, priority 2021, dated 2023)

What was measured:
[1] = test system: BALB/c mice immunized with human quadrivalent influenza vaccine; format: in vivo
[2] = test system: BALB/c mice immunized with human quadrivalent influenza vaccine; format: in vivo; conditions: 16 days post-immunization; flow cytometry; vaccine plus cardiolipin compared to vehicle or vaccine only; FIG. 3A-3H

`CCCCC/C=C\C/C=C\CCCCCCCC(=O)OC[C@H](COP(=O)([O-])OCC(O)COP(=O)([O-])OC[C@@H](COC(=O)CCCCCCC/C=C\C/C=C\CCCCC)OC(=O)CCCCCCC/C=C\C/C=C\CCCCC)OC(=O)CCCCCCC/C=C\C/C=C\CCCCC.[Na+].[Na+]` (stereo partly shown) [cardiolipin (C18:2)4] was tested. Which “accelerated seroconversion (time post-immunization)” value ([1]; 100 μg/kg cardiolipin (C18:2)4 mixed with […] TETRA vaccine (1 microgram HA), intramuscular and subcutaneous, cardiolipin booster at day 10, compared to vehicle or vaccine only) did it give?
Its value is 7 days.

And the “vaccine antigen-specific antibodies in sera” value ([1]; 13 days post-immunization, 100 μg/kg cardiolipin (C18:2)4 with vaccine, compared to vehicle or vaccine only, FIG. 2A-2B (IgM, IgG))?
The value was “significantly higher”.

What about the “subclasses of virus-specific antibodies elicited (Th1/Th2 response)” value ([1]; serum IgG, IgG1, IgG2a, IgG2b by ELISA, FIG. 2C-2F) of the same compound?
Its value is “elicited both IgG2a and IgG1 subclasses of virus-specific antibodies, indicating a balanced Th1/Th2 response”.

What about the “cells producing the examined cytokines (IFN-γ, IL-4 and IL-17A) in inguinal lymph nodes” value [2] of the same compound?
The value was “significant increase”.
